US20140113931A1, “SUBSTITUTED PICOLINAMIDE KINASE INHIBITORS” (Portola Pharmaceuticals, Inc., priority 2012, published 2014)

biological target: T1, full length active recombinant SYK enzyme (Homo sapiens, UniProt P43405); test: Inhibition of Syk tyrosine phosphorylation activity (LANCE TR-FRET kinase assay); type: biochemical; conditions: 1 nM active SYK enzyme, 550 nM SYK-substrate, 100 μM ATP, 1 hour at room temperature
T1 construct: full length active recombinant SYK enzyme (Millipore, CA); purchased Millipore, CA
Description: The in vitro and in vivo human Syk activities of the inventive compounds can be determined by various procedures known in the art, such as a test for their ability to inhibit the activity of human plasma Syk. […] The IC50 value is the concentration (in nM) of the compound required to provide 50% inhibition of human Syk proteolytic activity.
An in vitro assay for detecting and measuring inhibition activity against Syk is as follows:
SYK tyrosine phosphorylation activity is measured using the LANCE™ Technology developed by Perkin Elmer Life and Analytical Sciences (Boston, Mass.). LANCE™ refers to homogeneous time resolved fluorometry applications using techniques such as time-resolved fluorescence resonance energy transfer assay (TR-FRET) (see generally for procedures in Perkin Elmer Application Note—How to Optimize a Tyrosine Kinase Assay Using Time Resolved Fluorescence-Based LANCE Detection, wwww.perkinelmer.com/lifesciences). The assay principle involves detection of a phosphorylated substrate using energy transfer from a phosphospecific europium-labeled antibody to streptavidin-allophycocyanin as an acceptor.
Molecules are reconstituted in 30% DMSO and serially diluted 1:3 with the final dilution containing DMSO in the absence of the candidate molecule. The final DMSO concentration in the assay is 3%. Kinase assays are performed as a two part reaction. The first reaction is a kinase reaction and which comprises of a candidate molecule, full length active recombinant SYK enzyme (Millipore, CA) and biotin-labeled SYK-specific substrate biotin-DEEDYESP-OH. The second reaction involves termination of the kinase reaction and the simultaneous addition of the detection reagents-europium-labeled anti-phosphotyrosine reagent (Eu-W1024-PY100, Perkin Elmer, Boston, Mass.) and Streptavidin-Allophycocyanin detection reagent (SA-APC, Prozyme, CA). The kinase reaction is performed in a black U-bottom 96-well microtitre plate. The final reaction volume is 50 μL and contains a final concentration of 1 nM active SYK enzyme, 550 nM SYK-substrate, and 100 μM ATP diluted in a buffer containing 50 mM Tris pH 7.5, 5 mM MgCl2, and 1 mM DTT. The reaction is allowed to proceed for 1 hour at room temperature. The quench buffer contains 100 mM Tris pH 7.5, 300 mM NaCl2, 20 mM EDTA, 0.02% Brij35, and 0.5% BSA. The detection reagents are added to the reaction mixture at the following dilutions-1:500 for Eu-W1024-PY100 and 1:250 for SA-APC. The kinase reaction is terminated by the addition of 50 μL quench buffer containing the detection reagents. The detection is allowed to proceed for 1 hr at room temperature. Detection of the phosphorlated substrate in the absence and presence of inhibitors is measured in the TR-FRET instrument, Analyst HT (Molecular Probes, Sunnyvale, Calif.) and the condition for measurements are set up using CriterionHost Release 2.0 (Molecular Probes, Sunnyvale, Calif.). The settings used are a follows: excitation 360 nm, emission 665-7.5 nm, beam splitter 350 nm 50/50, flash 100 pulses, delay 60 us, integration 400 us, z-height 2 mm. Inhibition of SYK-tyrosine kinase activity is calculated as the maximum response observed in the presence of inhibitor, compared to that in the absence of inhibitor. IC50s were derived by non-linear regression analysis.

**Q.** `NC(=O)c1ncc(N[C@@H]2CCCC[C@@H]2N)cc1Nc1cc(C2CC2)no1` [Example 34, 5-((1R,2S)-2-aminocyclohexylamino)-3-(3-cyclopropylisoxazol-5-ylamino)picolinamide] was tested. Which IC50 did it give?
**A.** 1 to 10 nM

**Q.** For `Cc1nsc(Nc2cc(N[C@H](CC3CC3)C(N)=O)cnc2C(N)=O)c1I` [Example 31, (R)-5-((1-amino-3-cyclopropyl-1-oxopropan-2-yl)amino)-3-((4-iodo-3-methylisothiazol-5-yl)amino)picolinamide], which IC50 is on record?
**A.** 100 to 1000 nM

**Q.** For `Cc1cc(Nc2cc(N[C@H](C)C(N)=O)cnc2C(N)=O)sn1` [Example 43, (R)-5-(1-amino-1-oxopropan-2-ylamino)-3-(3-methylisothiazol-5-ylamino)picolinamide], which IC50 is on record?
**A.** 10 to 100 nM

**Q.** For `NC(=O)c1ncc(N[C@@H]2CCCC[C@@H]2N)cc1Nc1ccc2cccnc2c1` [Example 15, 5-((1R,2S)-2-aminocyclohexylamino)-3-(quinolin-7-ylamino)picolinamide], which IC50 is on record?
**A.** 10 to 100 nM

**Q.** How did the IC50 turn out when `CC(C)[C@@H](Nc1cnc(C(N)=O)c(Nc2cc(C3CC3)no2)c1)C(N)=O` [Example 35, (R)-5-(1-amino-3-methyl-1-oxobutan-2-ylamino)-3-(3-cyclopropylisoxazol-5-ylamino)picolinamide] was run?
**A.** 10 to 100 nM

**Q.** Which IC50 does the source give for `NC(=O)c1ncc(N[C@H](CC(F)(F)F)C(N)=O)cc1Nc1ccc2cccnc2c1` [Example 51, (R)-5-(1-amino-4,4,4-trifluoro-1-oxobutan-2-ylamino)-3-(quinolin-7-ylamino)picolinamide] here?
**A.** 1 to 10 nM

**Q.** `Cc1cc(Nc2cc(N[C@H]3CC[C@@H](N)CC3)cnc2C(N)=O)sn1` [Example 26, 5-((1S,4S)-4-aminocyclohexylamino)-3-(3-methylisothiazol-5-ylamino)picolinamide] was tested. Which IC50 did it give?
**A.** 10 to 100 nM

**Q.** `Cc1cc(Nc2cc(N[C@@H]3CCCC[C@@H]3N)cnc2C(N)=O)sn1` [Example 4, 5-((1R,2S)-2-aminocyclohexylamino)-3-(3-methylisothiazol-5-ylamino)picolinamide] was tested. Which IC50 did it give?
**A.** 1 to 10 nM

**Q.** `Cc1cc(Nc2cc(N[C@H](CC3CCCCC3)C(N)=O)cnc2C(N)=O)sn1` [Example 18, (R)-5-(1-amino-3-cyclohexyl-1-oxopropan-2-ylamino)-3-(3-methylisothiazol-5-ylamino)picolinamide] was tested. Which IC50 did it give?
**A.** 10 to 100 nM

**Q.** `Cn1cc(Nc2cc(N[C@@H]3CCCC[C@@H]3N)cnc2C(N)=O)cn1` [Example 24, 5-((1R,2S)-2-aminocyclohexylamino)-3-(1-methyl-1H-pyrazol-4-ylamino)picolinamide] was tested. Which IC50 did it give?
**A.** 100 to 1000 nM

**Q.** `NC(=O)c1ncc(N[C@@H]2CCCC(F)(F)[C@@H]2N)cc1Nc1cc(-c2ccccc2)no1` [Example 9, 5-((1R,2R)-2-amino-3,3-difluorocyclohexylamino)-3-(3-phenylisoxazol-5-ylamino)picolinamide] was tested. Which IC50 did it give?
**A.** 100 to 1000 nM

**Q.** For `NC(=O)c1ncc(N[C@@H]2CCCC[C@@H]2N)cc1Nc1cncs1` [Example 56, 5-(((1R,2S)-2-aminocyclohexyl)amino)-3-(thiazol-5-ylamino)picolinamide], which IC50 is on record?
**A.** > 1000 nM

**Q.** `CC(C)(C)C[C@@H](Nc1cnc(C(N)=O)c(Nc2cc(F)c3ncccc3c2)c1)C(N)=O` [Example 40, (R)-5-(1-amino-4,4-dimethyl-1-oxopentan-2-ylamino)-3-(8-fluoroquinolin-6-ylamino)picolinamide] was tested. Which IC50 did it give?
**A.** 10 to 100 nM

**Q.** For `Cc1cc(Nc2cc(N[C@H](CC(F)(F)F)C(N)=O)cnc2C(N)=O)sn1` [Example 44, (R)-5-(1-amino-4,4,4-trifluoro-1-oxobutan-2-ylamino)-3-(3-methylisothiazol-5-ylamino)picolinamide], which IC50 is on record?
**A.** < 1 nM

**Q.** How did the IC50 turn out when `NC(=O)c1ncc(N[C@@H]2CCCC[C@@H]2N)cc1Nc1cnn2ccccc12` [Example 25, 5-((1R,2S)-2-aminocyclohexylamino)-3-(pyrazolo[1,5-a]pyridin-3-ylamino)picolinamide] was run?
**A.** 100 to 1000 nM

**Q.** How did the IC50 turn out when `Cc1cc(Nc2cc(N[C@@H]3CCCC(F)(F)[C@@H]3N)cnc2C(N)=O)sn1` [Example 2, 5-((1R,2R)-2-amino-3,3-difluorocyclohexylamino)-3-(3-methylisothiazol-5-ylamino)picolinamide] was run?
**A.** 10 to 100 nM
